Assay results published in ChEMBL document CHEMBL1671646, “Identification, characterization, and azole-binding properties of Mycobacterium smegmatis CYP164A2, a homolog of ML2088, the sole cytochrome P450 gene of Mycobacterium leprae” (Antimicrob Agents Chemother, 2009).

Key:
[1] = Binding affinity to Mycobacterium smegmatis ATCC 700084 CYP51 in presence of 0.5 M NaCl at pH7.5; set-up: species or system Mycolicibacterium smegmatis
[2] = target: T1, Cytochrome P450 130 (Mycobacterium tuberculosis, UniProt P9WPN5); test: Binding affinity to Mycobacterium tuberculosis CYP130
T1 sequence (P9WPN5 whole entry): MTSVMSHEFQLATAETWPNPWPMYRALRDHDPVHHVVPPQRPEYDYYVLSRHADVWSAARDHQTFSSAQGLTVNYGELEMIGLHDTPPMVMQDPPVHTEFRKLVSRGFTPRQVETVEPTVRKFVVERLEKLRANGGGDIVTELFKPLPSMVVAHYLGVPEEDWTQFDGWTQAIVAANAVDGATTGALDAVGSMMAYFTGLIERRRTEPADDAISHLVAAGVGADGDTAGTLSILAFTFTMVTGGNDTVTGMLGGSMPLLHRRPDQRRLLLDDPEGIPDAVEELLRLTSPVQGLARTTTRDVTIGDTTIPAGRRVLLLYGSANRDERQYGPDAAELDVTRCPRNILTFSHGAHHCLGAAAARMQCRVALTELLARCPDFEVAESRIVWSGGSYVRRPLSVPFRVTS

[3] = Binding affinity to Mycobacterium smegmatis ATCC 700084 CYP51 at pH7.5; set-up: species or system Mycolicibacterium smegmatis
[4] = Binding affinity to Mycobacterium smegmatis ATCC 700084 CYP164A2 in presence of 0.5 M NaCl at pH7.5; set-up: species or system Mycolicibacterium smegmatis
[5] = Binding affinity to Mycobacterium smegmatis ATCC 700084 CYP164A2 at pH7.5; set-up: species or system Mycolicibacterium smegmatis
[6] = target: T2, Sterol 14alpha-demethylase (Mycobacterium tuberculosis, UniProt P9WPP9)
T2 sequence (P9WPP9 whole entry): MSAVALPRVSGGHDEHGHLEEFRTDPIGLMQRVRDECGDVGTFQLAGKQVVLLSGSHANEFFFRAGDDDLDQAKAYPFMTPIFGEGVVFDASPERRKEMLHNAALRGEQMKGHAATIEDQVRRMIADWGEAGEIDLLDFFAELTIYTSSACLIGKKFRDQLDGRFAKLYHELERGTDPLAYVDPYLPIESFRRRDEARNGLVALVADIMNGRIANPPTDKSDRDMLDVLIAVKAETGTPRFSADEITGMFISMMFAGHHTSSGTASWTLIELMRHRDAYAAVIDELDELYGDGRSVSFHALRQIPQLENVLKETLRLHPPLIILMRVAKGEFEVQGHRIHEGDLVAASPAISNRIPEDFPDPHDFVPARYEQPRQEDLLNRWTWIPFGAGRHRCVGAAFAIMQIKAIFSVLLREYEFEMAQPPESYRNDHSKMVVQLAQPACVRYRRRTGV
Description: Binding affinity to Mycobacterium tuberculosis CYP51

[7] = system: Mycolicibacterium smegmatis; test: Selectivity ratio, ratio of Kd for Mycobacterium smegmatis ATCC 700084 CYP164A2 to Kd for Mycobacterium smegmatis ATCC 700084 CYP51
[8] = Selectivity ratio, ratio of Kd for Mycobacterium smegmatis ATCC 700084 CYP164A2 to Kd for Mycobacterium tuberculosis CYP121
[9] = target: T3, Mycocyclosin synthase (Mycobacterium tuberculosis, UniProt P9WPP7); test: Binding affinity to Mycobacterium tuberculosis CYP121
T3 sequence (P9WPP7 whole entry): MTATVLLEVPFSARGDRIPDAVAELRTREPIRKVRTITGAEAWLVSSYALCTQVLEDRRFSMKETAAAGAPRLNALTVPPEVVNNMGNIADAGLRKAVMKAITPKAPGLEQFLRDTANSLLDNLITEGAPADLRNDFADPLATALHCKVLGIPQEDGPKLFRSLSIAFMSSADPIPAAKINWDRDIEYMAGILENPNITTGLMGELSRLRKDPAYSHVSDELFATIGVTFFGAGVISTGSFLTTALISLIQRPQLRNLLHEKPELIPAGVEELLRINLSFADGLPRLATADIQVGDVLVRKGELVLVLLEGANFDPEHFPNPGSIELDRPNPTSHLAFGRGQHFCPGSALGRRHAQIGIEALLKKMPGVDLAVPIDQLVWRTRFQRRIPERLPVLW

[10] = system: Mycolicibacterium smegmatis; test: Selectivity ratio of Kd for Mycobacterium smegmatis ATCC 700084 CYP164A2 in presence of 0.5 M NaCl to Kd for Mycobacterium smegmatis ATCC 700084 CYP164A2
[11] = target: T4, Lanosterol 14-alpha demethylase (Bos taurus, UniProt Q4PJW3); test: Binding affinity to bovine CYP51
T4 sequence (Q4PJW3 whole entry): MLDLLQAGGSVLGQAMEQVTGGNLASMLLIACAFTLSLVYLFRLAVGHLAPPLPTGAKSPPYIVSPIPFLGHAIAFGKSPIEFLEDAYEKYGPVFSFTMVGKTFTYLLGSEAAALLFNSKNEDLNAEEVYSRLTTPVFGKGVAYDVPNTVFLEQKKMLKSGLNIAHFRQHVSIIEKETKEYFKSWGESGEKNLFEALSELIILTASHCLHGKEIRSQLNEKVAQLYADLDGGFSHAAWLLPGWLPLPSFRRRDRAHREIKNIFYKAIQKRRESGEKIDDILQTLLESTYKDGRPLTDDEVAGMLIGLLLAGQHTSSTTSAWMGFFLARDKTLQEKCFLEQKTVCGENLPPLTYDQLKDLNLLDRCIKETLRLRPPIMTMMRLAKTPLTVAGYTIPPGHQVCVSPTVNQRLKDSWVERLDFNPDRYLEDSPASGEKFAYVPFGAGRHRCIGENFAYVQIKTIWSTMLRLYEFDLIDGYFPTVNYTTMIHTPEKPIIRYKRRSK

[12] = Binding affinity to Mycobacterium smegmatis ATCC 700084 CYP164A2 in presence of 0.05 M NaCl; set-up: species or system Mycolicibacterium smegmatis
[13] = Binding affinity to Mycobacterium smegmatis ATCC 700084 CYP164A2 in presence of 0.3 M NaCl; set-up: species or system Mycolicibacterium smegmatis
[14] = Binding affinity to Mycobacterium smegmatis ATCC 700084 CYP164A2 in presence of 1 M NaCl; set-up: species or system Mycolicibacterium smegmatis
[15] = Binding affinity to Mycobacterium smegmatis ATCC 700084 CYP164A2 in presence of 2 M NaCl; set-up: species or system Mycolicibacterium smegmatis
[16] = Binding affinity to Mycobacterium smegmatis ATCC 700084 CYP164A2 in presence of 0.2 M NaCl; set-up: species or system Mycolicibacterium smegmatis
[17] = system: Mycolicibacterium smegmatis; test: Selectivity ratio, ratio of Kd for Mycobacterium smegmatis ATCC 700084 CYP164A2 in presence of 0.3 M NaCl to Kd for Mycobacterium smegmatis ATCC 700084 CYP164A2
[18] = Binding affinity to Mycobacterium smegmatis ATCC 700084 CYP164A2 in presence of 0.1 M NaCl; set-up: species or system Mycolicibacterium smegmatis

| Compound | Kd [1] [µM] | Kd [3] [µM] | Kd ([4]; read-out: Kd) [µM] | Kd [5] [µM] | Ratio [10] | also measured |
| --- | --- | --- | --- | --- | --- | --- |
| Clc1ccccc1C(c1ccccc1)(c1ccccc1)n1ccnc1 [CLOTRIMAZOLE] | 0.43 | 0.62 | 2.66 | 1.2 | – | Kd [2]: 13.3 µM |
| Clc1ccc(COC(Cn2ccnc2)c2ccc(Cl)cc2Cl)cc1 (stereo not given) [ECONAZOLE] | 1.66 | 0.88 | – | 2.52 | – | Kd [6]: 0.2 µM; Ratio [7]: 2; Kd [4]: 9.31 µM; Ratio [8]: 17 |
| OC(Cn1cncn1)(Cn1cncn1)c1ccc(F)cc1F [FLUCONAZOLE] | 5.94 | 19.5 | – | – | – | Kd [9]: 6 µM |
| CCC(C)n1ncn(-c2ccc(N3CCN(c4ccc(OCC5COC(Cn6cncn6)(c6ccc(Cl)cc6Cl)O5)cc4)CC3)cc2)c1=O (stereo not given) [ITRACONAZOLE] | 3 | 1.26 | 1.11 | 0.78 | 3 | – |
| CC(=O)N1CCN(c2ccc(OCC3COC(Cn4ccnc4)(c4ccc(Cl)cc4Cl)O3)cc2)CC1 (stereo not given) [KETOCONAZOLE] | 4.59 | 7.45 | 7.48 | 5.69 | 3 | Kd [11]: 0.32 µM |
| Clc1ccc(COC(Cn2ccnc2)c2ccc(Cl)cc2Cl)c(Cl)c1 (stereo not given) [MICONAZOLE] | 0.94 | 1.16 | 5.57 | 2.48 | – | Kd [6]: 0.2 µM; Ratio [7]: 2; Ratio [8]: 17 |
| C[C@@H](c1ncncc1F)[C@](O)(Cn1cncn1)c1ccc(F)cc1F [VORICONAZOLE] | 4.57 | 5.94 | 19.7 | 3.24 | 3 | Kd [12]: 8.36 µM; Kd [13]: 34 µM; Kd [14]: 9.85 µM; Kd [15]: 13.2 µM; Kd [16]: 20.1 µM; Ratio [17]: 12; Kd [18]: 17.9 µM |
